The text below walks through data of patent publication US6251899A, “Methoximinomethyloxadiazines” (Bayer Aktiengesellschaft, priority 1997, dated 2001).

Read-outs that look alike come from different tables or passages of the source.

Data set [1] relates to Plasmopara viticola. In words: Plasmopara test (grapevine)/protective. To be noted: 144 h.
Protocol: Solvent: 47 parts by weight of acetone
(§1) Emulsifier: 3 parts by weight of alkylaryl polyglycol ether
After the spray coating has dried on, the plants are inoculated with an aqueous spore suspension of Plasmopara viticola and then remain in an incubation cabin at approximately 20° C. and 100% relative atmospheric humidity for 1 day. The plants are subsequently placed in a greenhouse at approximately 21° C. and approximately 90% relative atmospheric humidity for 5 days. The plants are then moistened and placed in an incubation cabin for 1 day.
Evaluation is carried out 6 days after the inoculation.
A short description of data set [2]: logP by HPLC (EEC Directive 79/831 Annex V. A8, gradient method, acetonitrile/0.1% aqueous phosphoric acid). It is filed as physicochemical. How it is done:
*The logP values were determined in accordance with EEC Directive 79/831
Annex V. A8 by HPLC (gradient method, acetonitrile/0.1% aqueous phosphoric

Data set [3] deals with Venturia inaequalis. In words: Venturia test (apple)/protective. To be noted: 288 h.
Protocol: Solvent: 47 parts by weight of acetone
as §1
After the spray coating has dried on, the plants are inoculated with aqueous conidia suspension of the causative organism of apple scab Venturia inaequalis and then remain in an incubation cabin at approximately 20° C. and 100% relative atmospheric humidity for 1 day.
The plants are then placed in a greenhouse at approximately 21° C. and a relative atmospheric humidity of approximately 90%.
Evaluation is carried out 12 days after the inoculation.
The mark [4] stands for this setting: read-out: Efficacy, grapevine, protective, 100 g/ha, 6 days after inoculation.
[5] abbreviates: read-out: Efficacy, apple, protective, 10 g/ha, 12 days after inoculation.

The term chromatographic logP denotes lipophilicity estimated from chromatographic retention. Broadly, the logP is a log measure of how a compound divides between an organic and an aqueous phase. The low end stands for lower lipophilicity, the high end for higher lipophilicity.

Consider `CON=C(C1=NOCCN1)c1ccccc1Oc1ncnc(Oc2cccc(Cl)c2Cl)c1F` [Example 1, 3-{1-[2-(4-<2,3-dichlorophenoxy>-5-fluoropyrimid-6-yloxy)-phenyl]-1-(methoximino)-methyl}-5,6-dihydro-4H-1,2,4-oxadiazine], for which the pest or weed control at 100 g/ha in data set [1] (setting [4]) is not below 90%. The molecule further gave a chromatographic logP in data set [2] of 3.45.

Take `CON=C(C1=NOCCN1)c1ccccc1Oc1ncnc(Oc2cccc(Cl)c2C)c1F` [Example 2]: in data set [1] (setting [4]), the pest or weed control at 100 g/ha is not below 90%. The same molecule registered a chromatographic logP in data set [2] of 3.52. In data set [3] (setting [5]), the pest or weed control at 10 g/ha is not below 90%.

As for `CON=C(C1=NOCCN1)c1ccccc1Oc1ncnc(Oc2ccccc2Cl)c1F` [Example 3], in data set [1] (setting [4]), the pest or weed control at 100 g/ha is not below 90%. This molecule displayed a chromatographic logP in data set [2] of 3.02. Besides, the pest or weed control at 10 g/ha was 92% in data set [3] (read-out: Efficacy) and not below 90% in data set [3] (setting [5]).

Regarding `CON=C(C1=NOCCN1)c1ccccc1Oc1ncnc(Oc2cccc(C)c2C)c1F` [Example 4], in data set [1] (setting [4]), the pest or weed control at 100 g/ha is not below 90%. This molecule also showed a chromatographic logP in data set [2] of 3.29. In addition, the values for the pest or weed control at 10 g/ha in data set [3] (read-out: Efficacy) and in data set [3] (setting [5]) were 95% and not below 90%, respectively.

Take `CON=C(C1=NOCCN1)c1ccccc1Oc1ncnc(Oc2cccc(Cl)c2)c1F` [Example 5]: the results for the pest or weed control at 100 g/ha in data set [1] (read-out: Efficacy) and in data set [1] (setting [4]) were 97% and not below 90%, respectively. This molecule also displayed a chromatographic logP in data set [2] of 3.23. Moreover, the pest or weed control at 10 g/ha in data set [3] (read-out: Efficacy) was 99%; in data set [3] (setting [5]) it was not below 90%.

As to `CON=C(C1=NOCCN1)c1ccccc1Oc1ncnc(Oc2ccc(Cl)cc2)c1F` [Example 6], the pest or weed control at 100 g/ha in data set [1] (read-out: Efficacy) was 97%; in data set [1] (setting [4]), not below 90%. This molecule gave a chromatographic logP in data set [2] of 3.23.

Take `C=Cc1ccccc1Oc1ncnc(Oc2ccccc2C(=NOC)C2=NOCCN2)c1F` [Example 7]: the pest or weed control at 100 g/ha in data set [1] (setting [4]) is not below 90%. For the same molecule, the chromatographic logP in data set [2] turned out to be 3.38. The pest or weed control at 10 g/ha in data set [3] (setting [5]) is not below 90%.

In turn, `CON=C(C1=NOCCN1)c1ccccc1Oc1ncnc(Oc2ccccc2C)c1F` [Example 8] came in with a chromatographic logP in data set [2] of 3.01.

As to `CON=C(C1=NOCCN1)c1ccccc1Oc1ncnc(Oc2ccccc2Br)c1F` [Example 9], the pest or weed control at 100 g/ha in data set [1] (setting [4]) was not below 90%. In addition, in data set [2], the chromatographic logP amounted to 3.08.

For the molecule `CON=C(C1=NOCCN1)c1ccccc1Oc1ncnc(Oc2ccccc2F)c1F` [Example 10], the pest or weed control at 100 g/ha in data set [1] (setting [4]) was not below 90%. The chromatographic logP in data set [2] was determined as 2.85. In addition, the pest or weed control at 10 g/ha in data set [3] (setting [5]) is not below 90%.

Turning to `CON=C(C1=NOCCN1)c1ccccc1Oc1ncnc(Oc2cccc(C(C)(C)C)c2)c1F` [Example 12], the chromatographic logP in data set [2] worked out at 3.96. For the same molecule, the pest or weed control at 10 g/ha in data set [3] (setting [5]) was not below 90%.

`CON=C(C1=NOCCN1)c1ccccc1Oc1ncnc(Oc2ccccc2OC)c1F` [Example 14]: in data set [1] (setting [4]), the pest or weed control at 100 g/ha is not below 90%. In data set [2], this molecule displayed a chromatographic logP of 2.7.

For `CON=C(C1=NOCCN1)c1ccccc1Oc1ncnc(Oc2ccc(C)cc2C)c1F` [Example 15], the pest or weed control at 100 g/ha in data set [1] (setting [4]) is not below 90%. This molecule also gave a chromatographic logP in data set [2] of 3.38.

`CON=C(C1=NOCCN1)c1ccccc1Oc1ncnc(Oc2cc(C)ccc2C)c1F` [Example 16] returned a chromatographic logP in data set [2] of 3.35.

`CON=C(C1=NOCCN1)c1ccccc1Oc1ncnc(Oc2cc(C)ccc2Cl)c1F` [Example 18] came in with a chromatographic logP in data set [2] of 3.35.

As for `CON=C(C1=NOCCN1)c1ccccc1Oc1ncnc(Oc2c(C)cccc2C)c1F` [Example 19], the pest or weed control at 100 g/ha in data set [1] (setting [4]) is not below 90%. This molecule came in with a chromatographic logP in data set [2] of 3.29.

`CON=C(C1=NOCCN1)c1ccccc1Oc1ncnc(Oc2ccc(C)cc2)c1F` [Example 21] showed a chromatographic logP in data set [2] of 3.08. In data set [3] (setting [5]), the pest or weed control at 10 g/ha is not below 90%.

Take `CON=C(C1=NOCCN1)c1ccccc1Oc1ncnc(Oc2ccccc2C(C)(C)C)c1F` [Example 22]: in data set [2], the chromatographic logP was 3.84. Besides, the pest or weed control at 10 g/ha in data set [3] (setting [5]) is not below 90%.

With `CON=C(C1=NOCCN1)c1ccccc1Oc1ncnc(Oc2cccc(OC)c2)c1F` [Example 23], the chromatographic logP in data set [2] was determined as 2.8. Besides, the pest or weed control at 10 g/ha in data set [3] (setting [5]) was not below 90%.

The molecule `CON=C(C1=NOCCN1)c1ccccc1Oc1ncnc(Oc2cccc(C(F)(F)F)c2)c1F` [Example 24] returned a chromatographic logP in data set [2] of 3.39. Further, in data set [3] (setting [5]), the pest or weed control at 10 g/ha is not below 90%.

For `CON=C(C1=NOCCN1)c1ccccc1Oc1ncnc(Oc2ccc(OC(F)(F)F)cc2)c1F` [Example 25], the chromatographic logP in data set [2] was found to be 3.54.

`CON=C(C1=NOCCN1)c1ccccc1Oc1ncnc(Oc2ccc(C(F)(F)F)cc2Cl)c1F` [Example 26] showed a chromatographic logP in data set [2] of 3.76.

`CON=C(C1=NOCCN1)c1ccccc1Oc1ncnc(Oc2ccc(OC(F)(F)F)cc2Cl)c1F` [Example 27]: in data set [2], the chromatographic logP was 3.86.

In data set [2], `CON=C(C1=NOCCN1)c1ccccc1Oc1ncnc(Oc2ccccc2C#N)c1F` [Example 29] returned a chromatographic logP of 2.56.

Consider `CON=C(C1=NOCCN1)c1ccccc1Oc1ncnc(Oc2ccc(OC(F)(F)F)cc2C)c1F` [Example 30], for which the chromatographic logP in data set [2] was determined as 3.8.

The molecule `CON=C(C1=NOCCN1)c1ccccc1Oc1ncnc(Oc2cccc3c2OC(C)(C)C3)c1F` [Example 31] yielded a chromatographic logP in data set [2] of 3.3. In addition, the pest or weed control at 10 g/ha in data set [3] (setting [5]) was not below 90%.

With `CON=C(C1=NOCCN1)c1ccccc1Oc1ncnc(Oc2ccc(SC(F)(F)F)cc2)c1F` [Example 32], the chromatographic logP in data set [2] was determined as 3.84.

In data set [2], `CON=C(C1=NOCCN1)c1ccccc1Oc1ncnc(Oc2ccc(OC(F)(F)C(F)Cl)cc2)c1F` (stereo not shown) [Example 33] yielded a chromatographic logP of 3.56.

For the molecule `CON=C(C1=NOCCN1)c1ccccc1Oc1ncnc(Oc2ccccc2)c1F` [Example 34], the pest or weed control at 100 g/ha in data set [1] (setting [4]) is not below 90%. The chromatographic logP in data set [2] turned out to be 2.76.

`CON=C(C1=NOCCN1)c1ccccc1Oc1ncnc(Oc2ccc(C)nc2)c1F` [Example 35] returned a chromatographic logP in data set [2] of 1.58.

Consider `CON=C(C1=NOCCN1)c1ccccc1Oc1ncnc(Oc2cccnc2Br)c1F` [Example 36], for which the chromatographic logP in data set [2] is 2.43. Also, the pest or weed control at 10 g/ha in data set [3] (setting [5]) was not below 90%.

Turning to `CON=C(C1=NOCCN1)c1ccccc1Oc1ncnc(Oc2cccnc2)c1F` [Example 37], the chromatographic logP in data set [2] was 1.73.

`CON=C(C1=NOCCN1)c1ccccc1Oc1ncnc(Oc2cccc(Cl)n2)c1F` [Example 40] showed a chromatographic logP in data set [2] of 2.62. The pest or weed control at 10 g/ha in data set [3] (setting [5]) was not below 90%.

With `CON=C(C1=NOCCN1)c1ccccc1Oc1ncnc(Oc2ccc(Cl)cn2)c1F` [Example 41], in data set [2], the chromatographic logP is 2.65.

For `CON=C(C)c1ccc(Oc2ncnc(Oc3ccccc3C(=NOC)C3=NOCCN3)c2F)c(C)c1` [Example 42], the chromatographic logP in data set [2] is 3.56.

On to `CON=C(C1=NOCCN1)c1ccccc1Oc1ncnc(OCc2ccccc2Cl)c1F` [Example 45], for which, in data set [2], the chromatographic logP was determined as 2.8.

With `CON=C(C1=NOCCN1)c1ccccc1Oc1ncnc(OCc2cccc(Cl)c2)c1F` [Example 46], in data set [2], the chromatographic logP stood at 3.44.

With `CON=C(C1=NOCCN1)c1ccccc1Oc1ncnc(Sc2ccccc2)c1F` [Example 48], in data set [1] (setting [4]), the pest or weed control at 100 g/ha was not below 90%. Further, in data set [3] (setting [5]), the pest or weed control at 10 g/ha was not below 90%.

`CON=C(C1=NOCCN1)c1ccccc1Oc1ncnc(Sc2ccc(Br)cc2)c1F` [Example 49]: in data set [2], the chromatographic logP turned out to be 3.69.

For the molecule `CON=C(C1=NOCCN1)c1ccccc1Oc1ncnc(Sc2ccc(Cl)cc2)c1F` [Example 50], the pest or weed control at 100 g/ha in data set [1] (setting [4]) was not below 90%. In data set [2], this molecule yielded a chromatographic logP of 3.57.

`CON=C(C1=NOCCN1)c1ccccc1Oc1ncnc(Sc2ccc(C)cc2)c1F` [Example 51]: in data set [1] (setting [4]), the pest or weed control at 100 g/ha is not below 90%. The chromatographic logP in data set [2] is 3.45.

As to `CON=C(C1=NOCCN1)c1ccccc1Oc1ncnc(Sc2cccc(Br)c2)c1F` [Example 52], in data set [2], the chromatographic logP was 3.66.

For `CON=C(C1=NOCCN1)c1ccccc1Oc1ncnc(Sc2cccc(Cl)c2)c1F` [Example 53], the pest or weed control at 100 g/ha in data set [1] (setting [4]) is not below 90%. In addition, in data set [2], the chromatographic logP is 3.56.

Take `CON=C(C1=NOCCN1)c1ccccc1Oc1ncnc(Sc2ccc(Cl)c(C(F)(F)F)c2Cl)c1F` [Example 55]: the chromatographic logP in data set [2] turned out to be 4.3.

`CON=C(C1=NOCCN1)c1ccccc1Oc1ncnc(SC2CCCCC2)c1F` [Example 57]: in data set [2], the chromatographic logP worked out at 4.01.

In turn, `CON=C(C1=NOCCN1)c1ccccc1Oc1ncnc(SCc2ccccc2)c1F` [Example 58] gave a chromatographic logP in data set [2] of 3.42.

`CCSCc1ccccc1Oc1ncnc(Oc2ccccc2C(=NOC)C2=NOCCN2)c1F` [Example 60] yielded a chromatographic logP in data set [2] of 3.4.

As for `COCc1ccccc1Oc1ncnc(Oc2ccccc2C(=NOC)C2=NOCCN2)c1F` [Example 61], in data set [2], the chromatographic logP came to 2.74.

For the molecule `CCOCc1ccccc1Oc1ncnc(Oc2ccccc2C(=NOC)C2=NOCCN2)c1F` [Example 62], the chromatographic logP in data set [2] came to 3.04.

As to `CON=C(C1=NOCCN1)c1ccccc1Oc1ncnc(Oc2ccccc2SC)c1F` [Example 63], the chromatographic logP in data set [2] worked out at 2.95.

`CCSc1ccccc1Oc1ncnc(Oc2ccccc2C(=NOC)C2=NOCCN2)c1F` [Example 64] yielded a chromatographic logP in data set [2] of 3.26.

For the molecule `CON=C(C1=NOCCN1)c1ccccc1Oc1ncnc(F)c1F` [IV-1, 3-{1-[2-(4,5-difluoropyrimid-6-yloxy)-phenyl]-1-(methoximino)-methyl}-5,6-dihydro-4H-1,2,4-oxadiazine], in data set [2], the chromatographic logP is 1.97.

In data set [2], `CON=C1C(=NOCCOS(C)(=O)=O)Oc2ccccc21` [VI-1, benzofuran-2,3-dione 2-[O-(2-methylsulphonyloxy-ethyl)-oxime]3-(O-methyl-oxime)] displayed a chromatographic logP of 2.39.

In data set [2], `CON=C1C(=NOCCO)Oc2ccccc21` [benzofuran-2,3-dione 2-[O-(2-hydroxy-ethyl)-oxime] 3-(O-methyl-oxime)] registered a chromatographic logP of 1.65 and a log partition coefficient (logP) of 1.79.
